Reference: PubChem BioAssay AID290 (DTP/NCI, 2004)
“And” between values parts separate entries of the source, which are not always exact repeats. Identical values can stand only once. Results filed as inconclusive are left out.

Test system: mice, P1798 lymphosarcoma sc, survival or tumor weight T/C
Assay: NCI In Vivo Anticancer Drug Screen. Data for tumor model P1798 Lymphosarcoma (subcutaneous) in unknown mice
Protocol: The antitumor activity of compounds was measured in mice bearing transplantable tumors. Survival or tumor size were measured and the results are expressed as the measurement made in the treated group (T) divided by the measurement made in the vehicle treated control group (C). The tumor model used in this assay is P1798 Lymphosarcoma (subcutaneous) in unknown mice

[1] = endpoint: mean tumor weight, dose: 10.0 mg/kg/injection, schedule: Q01DX010 (ip), vehicle: saline, higher = larger tumour
[2] = endpoint: mean tumor weight, dose: 31.0 mg/kg/injection, schedule: Q01DX010 (ip), vehicle: carboxymethylcellulose (CMC), higher = larger tumour

CN(/N=N/N(C)c1ccccc1)c1ccccc1
T/C (endpoint: mean tumor weight, dose: 15.6 mg/kg/injection, schedule: Q01DX010 (ip), vehicle: carboxymethylcellulose (CMC), higher = larger tumour): 59 % of control
T/C (endpoint: mean tumor weight, dose: 31.3 mg/kg/injection, schedule: Q01DX010 (ip), vehicle: carboxymethylcellulose (CMC), higher = larger tumour): 44 % of control
T/C (endpoint: mean tumor weight, dose: 62.5 mg/kg/injection, schedule: Q01DX010 (ip), vehicle: carboxymethylcellulose (CMC), higher = larger tumour): 39 % of control
T/C (endpoint: mean tumor weight, dose: 125.0 mg/kg/injection, schedule: Q01DX010 (ip), vehicle: carboxymethylcellulose (CMC), higher = larger tumour): 58 % of control

CCN(CC)CCNc1ccc(C)c2sc3ccccc3c(=O)c12
T/C (endpoint: mean tumor weight, dose: 3.1 mg/kg/injection, schedule: Q01DX010 (ip), vehicle: methylcellulose (MC), higher = larger tumour): 108 % of control
T/C (endpoint: mean tumor weight, dose: 5.0 mg/kg/injection, schedule: Q01DX010 (ip), vehicle: methylcellulose (MC), higher = larger tumour): 99 % of control
T/C (endpoint: mean tumor weight, dose: 10.0 mg/kg/injection, schedule: Q01DX010 (ip), vehicle: methylcellulose (MC), higher = larger tumour): 68 % of control
T/C (endpoint: mean tumor weight, dose: 20.0 mg/kg/injection, schedule: Q01DX010 (ip), vehicle: methylcellulose (MC), higher = larger tumour): 104 % of control

C[C@]12CCC(=O)C=C1CC[C@H]1[C@@H]3CC[C@](O)(C(=O)CO)[C@@]3(C)C[C@H](O)[C@@]12F
T/C (endpoint: mean tumor weight, dose: 0.5 mg/kg/injection, schedule: Q01DX011 (sc), vehicle: steriod suspending solution, higher = larger tumour): 76 % of control
T/C (endpoint: mean tumor weight, dose: 1.0 mg/kg/injection, schedule: Q01DX011 (sc), vehicle: steriod suspending solution, higher = larger tumour): 36 % of control
T/C (endpoint: mean tumor weight, dose: 2.0 mg/kg/injection, schedule: Q01DX011 (sc), vehicle: steriod suspending solution, higher = larger tumour): 61 % of control
T/C (endpoint: mean tumor weight, dose: 2.5 mg/kg/injection, schedule: Q01DX015 (ip), vehicle: carboxymethylcellulose (CMC), higher = larger tumour): 103 % of control
T/C (endpoint: mean tumor weight, dose: 3.5 mg/kg/injection, schedule: Q01DX011 (sc), vehicle: steriod suspending solution, higher = larger tumour): 64 % of control
T/C (endpoint: mean tumor weight, dose: 5.0 mg/kg/injection, schedule: Q01DX015 (ip), vehicle: carboxymethylcellulose (CMC), higher = larger tumour): 105 % of control

C=CC(CN1CC1)OC(C)=O (centres undefined)
T/C (endpoint: mean tumor weight, dose: 4.0 mg/kg/injection, schedule: Q01DX010 (ip), vehicle: saline, higher = larger tumour): 71 % of control
T/C (endpoint: mean tumor weight, dose: 6.0 mg/kg/injection, schedule: Q01DX010 (ip), vehicle: saline, higher = larger tumour): 64 % of control
T/C (endpoint: mean tumor weight, dose: 8.0 mg/kg/injection, schedule: Q01DX010 (ip), vehicle: saline, higher = larger tumour): 42 % of control

CCCCn1cnc2c(=S)nc[nH]c21
T/C (endpoint: mean tumor weight, dose: 50.0 mg/kg/injection, schedule: Q01DX010 (ip), vehicle: carboxymethylcellulose (CMC), higher = larger tumour): 78 % of control
T/C (endpoint: mean tumor weight, dose: 100.0 mg/kg/injection, schedule: Q01DX010 (ip), vehicle: carboxymethylcellulose (CMC), higher = larger tumour): 43 % of control

Cn1c(N)nc2nc[nH]c2c1=S
T/C (endpoint: mean tumor weight, dose: 3.1 mg/kg/injection, schedule: Q01DX010 (ip), vehicle: carboxymethylcellulose (CMC), higher = larger tumour): 105 % of control
T/C (endpoint: mean tumor weight, dose: 6.3 mg/kg/injection, schedule: Q01DX010 (ip), vehicle: carboxymethylcellulose (CMC), higher = larger tumour): 59 % of control
T/C [1]: 102 % of control
T/C (endpoint: mean tumor weight, dose: 12.5 mg/kg/injection, schedule: Q01DX010 (ip), vehicle: carboxymethylcellulose (CMC), higher = larger tumour): 91 % of control
T/C (endpoint: mean tumor weight, dose: 20.0 mg/kg/injection, schedule: Q01DX010 (ip), vehicle: saline, higher = larger tumour): 99 % of control
T/C (endpoint: mean tumor weight, dose: 25.0 mg/kg/injection, schedule: Q01DX010 (ip), vehicle: carboxymethylcellulose (CMC), higher = larger tumour): 101 % of control
T/C (endpoint: mean tumor weight, dose: 40.0 mg/kg/injection, schedule: Q01DX010 (ip), vehicle: saline, higher = larger tumour): 122 % of control
T/C (endpoint: mean tumor weight, dose: 80.0 mg/kg/injection, schedule: Q01DX010 (ip), vehicle: saline, higher = larger tumour): 114 % of control

OCC1OC(n2cnc3c(=S)nc[nH]c32)C(O)C1O (centres undefined)
T/C (endpoint: mean tumor weight, dose: 4.0 mg/kg/injection, schedule: Q01DX010 (ip), vehicle: carboxymethylcellulose (CMC), higher = larger tumour): 115 % of control
T/C (endpoint: mean tumor weight, dose: 8.0 mg/kg/injection, schedule: Q01DX010 (ip), vehicle: carboxymethylcellulose (CMC), higher = larger tumour): 67 % of control
T/C (endpoint: mean tumor weight, dose: 16.0 mg/kg/injection, schedule: Q01DX010 (ip), vehicle: carboxymethylcellulose (CMC), higher = larger tumour): 45 % of control
T/C [2]: 82 % of control

CS(=O)(=O)OCCCCOS(C)(=O)=O
T/C (endpoint: mean tumor weight, dose: 2.0 mg/kg/injection, schedule: Q01DX010 (ip), vehicle: methylcellulose (MC), higher = larger tumour): 74 % of control and 85 % of control
T/C (endpoint: mean tumor weight, dose: 4.0 mg/kg/injection, schedule: Q01DX010 (ip), vehicle: methylcellulose (MC), higher = larger tumour): 95 % of control
T/C (endpoint: mean tumor weight, dose: 8.0 mg/kg/injection, schedule: Q01DX010 (ip), vehicle: methylcellulose (MC), higher = larger tumour): 117 % of control and 92 % of control
T/C (endpoint: mean tumor weight, dose: 16.0 mg/kg/injection, schedule: Q01DX010 (ip), vehicle: methylcellulose (MC), higher = larger tumour): 50 % of control

O=C(O)C(=O)c1ccc(-c2ccccc2)cc1
T/C (endpoint: mean tumor weight, dose: 31.0 mg/kg/injection, schedule: Q01DX010 (ip), vehicle: methylcellulose (MC), higher = larger tumour): 82 % of control
T/C (endpoint: mean tumor weight, dose: 62.5 mg/kg/injection, schedule: Q01DX010 (ip), vehicle: methylcellulose (MC), higher = larger tumour): 87 % of control
T/C (endpoint: mean tumor weight, dose: 125.0 mg/kg/injection, schedule: Q01DX010 (ip), vehicle: methylcellulose (MC), higher = larger tumour): 106 % of control

Cn1cnc([N+](=O)[O-])c1Sc1nc(N)nc2nc[nH]c12
T/C (endpoint: mean tumor weight, dose: 2.5 mg/kg/injection, schedule: Q01DX010 (ip), vehicle: saline, higher = larger tumour): 53 % of control
T/C (endpoint: mean tumor weight, dose: 5.0 mg/kg/injection, schedule: Q01DX010 (ip), vehicle: saline, higher = larger tumour): 62 % of control
T/C [1]: 37 % of control

CCCNc1ncnc2[nH]ncc12
T/C (endpoint: mean tumor weight, dose: 5.0 mg/kg/injection, schedule: Q01DX010 (ip), vehicle: water, higher = larger tumour): 71 % of control
T/C (endpoint: mean tumor weight, dose: 10.0 mg/kg/injection, schedule: Q01DX010 (ip), vehicle: water, higher = larger tumour): 54 % of control

O=P1(N(CCCl)CCCl)NCCCO1 (centres undefined)
T/C (endpoint: mean tumor weight, dose: 6.3 mg/kg/injection, schedule: Q01DX010 (ip), vehicle: saline, higher = larger tumour): 113 % of control and 107 % of control
T/C (endpoint: mean tumor weight, dose: 13.0 mg/kg/injection, schedule: Q01DX011 (ip), vehicle: saline, higher = larger tumour): 86 % of control
T/C (endpoint: mean tumor weight, dose: 26.5 mg/kg/injection, schedule: Q01DX011 (ip), vehicle: saline, higher = larger tumour): 121 % of control
T/C (endpoint: mean tumor weight, dose: 40.0 mg/kg/injection, schedule: Q01DX011 (ip), vehicle: saline, higher = larger tumour): 26 % of control
T/C (endpoint: median survival time, dose: 3.12 mg/kg/injection, schedule: Q01DX010 (ip), vehicle: saline, higher = longer survival): 80 % of control
T/C (endpoint: median survival time, dose: 6.25 mg/kg/injection, schedule: Q01DX010 (ip), vehicle: saline, higher = longer survival): 97 % of control
T/C (endpoint: median survival time, dose: 6.3 mg/kg/injection, schedule: Q07DX005 (ip), vehicle: saline, higher = longer survival): 99 % of control
T/C (endpoint: median survival time, dose: 12.5 mg/kg/injection, schedule: Q01DX001 (ip), vehicle: saline, higher = longer survival): 107 % of control
T/C (endpoint: median survival time, dose: 12.5 mg/kg/injection, schedule: Q01DX010 (ip), vehicle: saline, higher = longer survival): 96 % of control and 103 % of control (2×)
T/C (endpoint: median survival time, dose: 12.5 mg/kg/injection, schedule: Q07DX005 (ip), vehicle: saline, higher = longer survival): 106 % of control
T/C (endpoint: median survival time, dose: 25.0 mg/kg/injection, schedule: Q01DX001 (ip), vehicle: saline, higher = longer survival): 92 % of control (2×) and 101 % of control
T/C (endpoint: median survival time, dose: 25.0 mg/kg/injection, schedule: Q01DX010 (ip), vehicle: saline, higher = longer survival): 46 % of control and 98 % of control (2×)
T/C (endpoint: median survival time, dose: 25.0 mg/kg/injection, schedule: Q07DX005 (ip), vehicle: saline, higher = longer survival): 103 % of control
T/C (endpoint: median survival time, dose: 50.0 mg/kg/injection, schedule: Q01DX001 (ip), vehicle: saline, higher = longer survival): 97 % of control and 99 % of control (2×)
T/C (endpoint: median survival time, dose: 50.0 mg/kg/injection, schedule: Q01DX010 (ip), vehicle: saline, higher = longer survival): 29 % of control and 90 % of control (2×)
T/C (endpoint: median survival time, dose: 50.0 mg/kg/injection, schedule: Q07DX005 (ip), vehicle: saline, higher = longer survival): 110 % of control
T/C (endpoint: median survival time, dose: 100.0 mg/kg/injection, schedule: Q01DX001 (ip), vehicle: saline, higher = longer survival): 114 % of control and 100 % of control (2×)
T/C (endpoint: median survival time, dose: 100.0 mg/kg/injection, schedule: Q01DX010 (ip), vehicle: saline, higher = longer survival): 29 % of control
T/C (endpoint: median survival time, dose: 100.0 mg/kg/injection, schedule: Q07DX005 (ip), vehicle: saline, higher = longer survival): 95 % of control
T/C (endpoint: median survival time, dose: 200.0 mg/kg/injection, schedule: Q01DX001 (ip), vehicle: saline, higher = longer survival): 107 % of control
T/C (endpoint: median survival time, dose: 200.0 mg/kg/injection, schedule: Q01DX010 (ip), vehicle: saline, higher = longer survival): 25 % of control
T/C (endpoint: median survival time, dose: 400.0 mg/kg/injection, schedule: Q01DX001 (ip), vehicle: saline, higher = longer survival): 29 % of control

Nc1nc(F)nc2c1ncn2C1OC(CO)C(O)C1O (centres undefined)
T/C (endpoint: mean tumor weight, dose: 0.75 mg/kg/injection, schedule: Q01DX011 (ip), vehicle: saline, higher = larger tumour): 73 % of control
T/C (endpoint: mean tumor weight, dose: 1.5 mg/kg/injection, schedule: Q01DX011 (ip), vehicle: saline, higher = larger tumour): 30 % of control

CC(=O)O[C@]1(C(C)=O)CC[C@H]2[C@@H]3C[C@H](C)C4=CC(=O)C=C[C@]4(C)[C@@]3(F)[C@@H](O)C[C@@]21C
T/C (endpoint: mean tumor weight, dose: 5.0 mg/kg/injection, schedule: Q01DX010 (sc), vehicle: steriod suspending solution, higher = larger tumour): 87 % of control
T/C (endpoint: mean tumor weight, dose: 10.0 mg/kg/injection, schedule: Q01DX010 (sc), vehicle: steriod suspending solution, higher = larger tumour): 106 % of control
T/C (endpoint: mean tumor weight, dose: 20.0 mg/kg/injection, schedule: Q01DX010 (sc), vehicle: steriod suspending solution, higher = larger tumour): 74 % of control
T/C (endpoint: mean tumor weight, dose: 40.0 mg/kg/injection, schedule: Q01DX010 (sc), vehicle: steriod suspending solution, higher = larger tumour): 47 % of control

CCn1cnc2c(=S)nc[nH]c21
T/C (endpoint: mean tumor weight, dose: 7.75 mg/kg/injection, schedule: Q01DX010 (ip), vehicle: carboxymethylcellulose (CMC), higher = larger tumour): 117 % of control
T/C (endpoint: mean tumor weight, dose: 15.5 mg/kg/injection, schedule: Q01DX010 (ip), vehicle: carboxymethylcellulose (CMC), higher = larger tumour): 95 % of control
T/C [2]: 82 % of control
